Consider four compounds from EP0371366A1, “Antiviral agents” (priority 1988, dated 1990).

Usually EC50 stands for the concentration giving half of the maximal effect. One may read the IC50 as the concentration that inhibits the measured activity by half.

Like-named read-outs stand apart in the source and are kept apart here. Marks after values point to notes of the source that are not given here. A value given as a limit tells only on which side of the number the result lay.

One data set concerns HIV (LAV Strain). Nature of the data set: Antiviral activity in HIV-infected A301 (Alex) cells, reverse transcriptase level readout. In kind it is cell-based. The note with it: Human immunodeficiency virus 1. As to the method: This procedure is a modification of a procedure initially described by Chen et al., Biochemical Pharmacology. 36 (24), 4361-4362 (1987).
(§1) A301 (Alex) cells are pre-infected with a constant amount of HIV (LAV Strain) for three hours at 37° C. Test compounds and AZT (control) are added to the infected cells in two, three or five-fold dilutions, out four places for screening and eight places for confirmation. Unless mentioned the highest concentration is […]. The test plates are incubated in C02 at 37` C for up to twelve days (incubation time depends on virus pool titer) with a partial medium/sample change midpoint through the incubation period. Uninfected A301 cells with sample dilutions, but without virus, are used to evaluate cytotoxicity.
Reverse transcriptase levels are assayed at the end of the incubation period as follows, to determine if antiviral activity is present.
[…] of medium from the HIV infected Alex cells is added to 10 mL of 3.2% Triton X-100. This solution is incubated for 30 minutes at 37° C, then 25 mL of 4X assay mix is added to it. The 4X assay mix contains [^3H]TTP, poly(A).oligo(dT), potassium chloride, magnesium chloride, dithiothreitol, and Tris-HCI buffer, pH8.0. […] The radioactivity remaining on the 3MM paper is quantitated by scintillation counter, and corresponds to reverse transcriptase level.

The subject of a further data set is Uninfected A301 cells. The data set is described as follows: Cytotoxicity in uninfected A301 (Alex) cells. In kind it is cell-based. Here is the method:
as §1

Data set [1] is described as follows: Cytotoxicity in uninfected A301 (Alex) cells. The settings on record: human, read-out: Cell Toxicity Partial. It counts as cell-based. Here is the method:
as §1

For data set [2] the following is noted: background statement on prior art; cited from earlier work.
For a further data set, the system named is HIV. The note with it: background statement on prior art; cited from earlier work.
In data set [3] the test system is Erythroid Colonies, CFU-E. The data set is described as follows: CFU-E assay (late erythroid precursors), human hematopoietic cell toxicity. In kind it is cell-based. An excerpt:
(§2) This procedure is a modification of procedures initially described by Diainiak, et al., British Journal of Haematology, 69, 229-304 (1988), or as described by Sommadossi, et al., Agents and Chemotherapy, 31-(3), 452-454 (1987).
(§3) The effect of 4 -azidothymidine and AZT on the formation of erythroid and GM colonies from precursors in human peripheral blood and bone marrow were compared; from which the inhibition of 4 -azidothymidine and AZT against human hematopoietic cells were compared.
In each experiment peripheral blood or bone marrow from a single donor was used. […]
MN were cultured at a concentration of 3 x 10^5 cells/ml. The culture medium consisted of Iscove's Modified Eagle Medium (Gibco) supplemented with 30% heat-inactiviated FCS (Hyclone), penicillin ([…]), streptomycin ([…]), 2-mercaptoethanol (1 x 10^-4, 1% deionized bovine serum albumin (BSA, Sigma), DEAE-Dextran 40 mg/ml (Pharmacia), 0.8% methylcellulose (4000 Centipose, Fisher), and erythropoietin 2 U/ml (Connaught Laboratories). Cells were plated in 96-well plates ([…]) and incubated at 37^*C with 5% C02 in air (100% humidity) for 7-14 days. CFU-E colonies were counted on Days 7-8. Clusters of 8 or more hemoglobinized cells were considered as a colony. BFU-E colonies were counted on Day 14. Aggregates of 50 or more cells were counted as a colony. […]

Data set [4] has as its system Friend leukemia virus complex (FLVC). In kind it is in vivo, Balb/c mice. The note with it: daily dose 120 mg/kg i.p. for 9 days. As to the method: This procedure is a modification of a procedure initially described by Jones et al., Journal of Virology, 62 (2), 511-51,8 (1988), or by modifications thereof.
Friend leukemia virus complex (FLVC) was used. This retrovirus complex consists of both helper and defective virus particles.
Six week old female Balb/c mice from Bantin and Kingman, each weighing on the average of 18 gm, received 0.2ml of a solution (comprised of virus diluted in PBS containing 0.002 M EDTA) administered at 20 FFU/mouse, intravenously. Treatments began 4 hours after infection and continued for 9 days. AZT and 4'-azidothymidine were administered at 60 mg/kg/dose twice daily on Days 0, 4, and 5; and on Days 1-3 and 6-8 were administered 3 times daily at 40 mg/kg/dose. 2 3 -Dideoxycytidine was administered at 120 mg/kg/dose twice daily on days 0, 4, and 5; and on days 1-3 and 6-8 was administered 3 times daily at 80 mg/kg/dose. All treatments were given intraperitoneally, 0.5mi/dose. On day 9 after infection the spleens were removed, stained and fixed in Bouin's solution for 2 hours and then weighed. Foci were counted on spleens. A standard t-test was run to compare difference in spleen weights and difference in number of foci-forming units (FFU's) per spleen between groups.

Data set [5] relates to Granulocyte-Macrophage Colonies (CFU-GM). Nature of the data set: CFU-GM assay (myeloid precursors), human hematopoietic cell toxicity. In kind it is cell-based.
Source text: as §2, §3
In each experiment peripheral blood or bone marrow from a single donor was used. Human peripheral blood mononuclear cells (PBL) were separated from heparinized blood of drug-free donors by density-gradient centrifugation in Ficoll (Pharmacia). Whole blood diluted 1:1 with Hanks' balanced salt solution (HBSS, Gibco) was layered on the top of Ficoll and centrifuged at 400 x g for 30 min. Cells were collected from the interphase and after washing, the concentration was adjusted to 2x10^6 cells/mL in RPMI-1640 medium with 25 mM Hepes buffer (Gibco). Monocytes were removed by adherence to plastic in large Petri dishes (150x15mm), adding 20 ml of the cell suspension/dish, and incubating for 1 hour at 37° C. Nonadherent mononuclear cells (MN) were removed by vigorous washing of the Petri dish with warm (37°C) HBSS.
Bone marrow aspirates from healthy donors were collected in heparizined syringes. The whole mononuclear cell fraction was separated by Ficoll-Paque density-gradient centrifugation (400 x g for 30 min). Cells collected from the interphase were washed 3 times in HBSS and resuspended in culture medium as described below for CFU-GM assay.
MN (1.5x10^6 cells/ml) and BM (1.x10^5 cells/ml) were cultured in complete medium as follows: Dulbecco's Modified Eagle Medium (DMEM, Gibco) supplemented with 20% heat-inactivated fetal calf serum (FCS, Hyclone), 2 mM L-glutamine, 5 x 10-^5 M 2-mercaptoethanol, penicillin (100 U/ml), streptomycin ([…]), and 0.3% bacto-agar (Difco). All supplements were from Gibco, unless otherwise specified. Cells were plated in 35x100 mm Lux Petri dishes (suspension dishes) in triplicate, and incubated at 37°C with 5% CO2 in air at 100% humidity. A supernatant from a T-cell line (GCT, Gibco), containing GM-Colony Stimlating Factor (GM-CSF), was used at a final concentration of 10% in complete medium. Tested compounds were added to the test dishes at concentrations of 10-^9 to 10-^4 M. Cells were incubated in air containing 5% CO2 (100% humidity) at 37°C for 14 days. Colonies were counted under a dissecting microscope. A CFU-GM colony was defined as a cluster of 50 or more cells consisting of granulocytes, monocyte-macrophages, or both.
All tests were performed in triplicate. The 50% inhibitory concentrations (ICso) for all types of colonies were determined using an RS 1 program on an IBM-PC.

`Cc1cn([C@H]2C[C@H](N=[N+]=[N-])[C@@H](CO)O2)c(=O)[nH]c1=O` [3'-azidothymidine, reference compound] showed a 50% effective concentration (EC50) in the data set on HIV (LAV Strain) of 0.01 µM. In the data set with Uninfected A301 cells, the “Cell Toxicity Complete” value was 3300 µM. Moreover, the MCC in data set [1] worked out at 825 µM.

In the case of `[N-]=[N+]=N[C@]1(CO)O[C@@H](n2ccc(N)nc2=O)[C@H](O)[C@@H]1O` [4 -azidocytidine], in data set [2], the cytotoxicity result was “cytotoxic”. Further, the anti-HIV activity result in the data set with HIV is listed as “devoid of anti-HIV activity”.

Regarding `Cc1cn([C@H]2C[C@H](O)[C@](CO)(N=[N+]=[N-])O2)c(=O)[nH]c1=O` [4'-azidothymidine], the IC50 worked out at 27 µM in data set [3] (BM (1 experiment)); 2.01 µM in data set [5] (bone marrow, experiment 1, listed as 2, read-out: IC50 BM 1); 0.9 µM in data set [5] (bone marrow, experiment 2, listed as 2, read-out: IC50 BM 2); 4.83 ± 1.42 µM in data set [5] (peripheral blood mononuclear cells, five separate experiments, listed as 2, read-out: IC50 PBM Mean ±SE). For the same compound, in the data set on HIV (LAV Strain) (A301 (Alex) cells pre-infected with HIV (LAV Strain), reverse transcriptase levels at end of incubation, read-out: EC50), the EC50 was 0.01 µM. Further, the “Cell Toxicity Complete” value in the data set on Uninfected A301 cells turned out to be 200 µM. For the same compound, the MCC in data set [1] came to 8 µM. In addition, in data set [4], the “Inhibition of Splenomegaly” value worked out at 75%. Also, in data set [4] (Day 9), the FFU/Spleen is given as no less than 26 FFU/Spleen. The “Spleen Weight” value in data set [4] (weighed on Day 9 after infection) is recorded as 0.190^d gm.

For the compound `Cc1cn([C@H]2C[C@H](O)[C@](CO)(N=[N+]=[N-])O2)c(=O)[nH]c1=O` [Compound 1], the IC50 in data set [3] (PBM (3 experiments)) is greater than 100 µM; in data set [5] (bone marrow, experiment 1, read-out: IC50 BM 1), 21.1 µM; in data set [5] (bone marrow, experiment 2, read-out: IC50 BM 2) it was 13.6 µM; in data set [5] (peripheral blood mononuclear cells, five separate experiments, read-out: IC50 PBM Mean ±SE) it was 20.7 ± 1.73 µM.
